Assays:
[1] = target: Insulin-like growth factor 1 receptor (Homo sapiens, UniProt P08069)
[2] = target: T1, ALK tyrosine kinase receptor (Homo sapiens, UniProt Q9UM73)
[3] = target: T1, ALK tyrosine kinase receptor; remark: listed apart in the source
Description: Inhibition of ALK phosphorylation in human Karpas-299 cells after 1 hr

Insulin-like growth factor 1 receptor, sequence (P08069 31-736 limits assumed): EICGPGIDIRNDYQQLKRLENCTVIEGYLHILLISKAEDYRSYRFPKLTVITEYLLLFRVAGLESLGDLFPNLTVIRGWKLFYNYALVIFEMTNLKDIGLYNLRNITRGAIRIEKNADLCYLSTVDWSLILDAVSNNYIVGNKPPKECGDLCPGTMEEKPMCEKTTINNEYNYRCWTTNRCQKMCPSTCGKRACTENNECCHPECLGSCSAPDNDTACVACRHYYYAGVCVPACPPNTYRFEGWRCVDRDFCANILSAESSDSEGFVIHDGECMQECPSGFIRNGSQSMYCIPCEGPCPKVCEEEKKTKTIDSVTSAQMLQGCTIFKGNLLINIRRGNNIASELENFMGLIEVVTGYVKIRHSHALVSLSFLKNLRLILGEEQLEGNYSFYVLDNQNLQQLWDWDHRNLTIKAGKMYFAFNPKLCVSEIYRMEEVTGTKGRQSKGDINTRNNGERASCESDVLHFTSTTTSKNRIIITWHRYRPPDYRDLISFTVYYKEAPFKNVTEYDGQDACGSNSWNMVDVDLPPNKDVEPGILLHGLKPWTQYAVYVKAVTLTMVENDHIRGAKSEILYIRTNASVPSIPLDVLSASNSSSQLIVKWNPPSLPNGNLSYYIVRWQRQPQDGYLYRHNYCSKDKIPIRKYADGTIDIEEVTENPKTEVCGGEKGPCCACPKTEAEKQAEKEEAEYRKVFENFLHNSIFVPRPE
Insulin-like growth factor 1 receptor, sequence (P08069 741-1367 limits assumed): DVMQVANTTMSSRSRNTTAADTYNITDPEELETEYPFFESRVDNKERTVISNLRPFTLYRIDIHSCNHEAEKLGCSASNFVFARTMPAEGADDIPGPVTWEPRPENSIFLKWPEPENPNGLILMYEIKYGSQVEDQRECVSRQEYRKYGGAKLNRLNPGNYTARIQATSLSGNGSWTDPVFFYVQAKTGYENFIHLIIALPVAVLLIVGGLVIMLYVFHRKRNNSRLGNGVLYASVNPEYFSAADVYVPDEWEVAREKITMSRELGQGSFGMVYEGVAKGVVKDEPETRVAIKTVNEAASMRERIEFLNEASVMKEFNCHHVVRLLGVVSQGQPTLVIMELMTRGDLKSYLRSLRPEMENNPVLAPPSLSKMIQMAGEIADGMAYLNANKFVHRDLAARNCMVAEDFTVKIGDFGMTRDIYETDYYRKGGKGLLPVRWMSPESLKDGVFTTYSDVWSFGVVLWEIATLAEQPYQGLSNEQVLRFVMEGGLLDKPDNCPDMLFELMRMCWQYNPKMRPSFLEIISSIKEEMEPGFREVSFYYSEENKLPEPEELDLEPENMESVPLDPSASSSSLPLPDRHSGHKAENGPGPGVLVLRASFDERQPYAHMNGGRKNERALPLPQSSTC
T1 sequence (Q9UM73 whole entry): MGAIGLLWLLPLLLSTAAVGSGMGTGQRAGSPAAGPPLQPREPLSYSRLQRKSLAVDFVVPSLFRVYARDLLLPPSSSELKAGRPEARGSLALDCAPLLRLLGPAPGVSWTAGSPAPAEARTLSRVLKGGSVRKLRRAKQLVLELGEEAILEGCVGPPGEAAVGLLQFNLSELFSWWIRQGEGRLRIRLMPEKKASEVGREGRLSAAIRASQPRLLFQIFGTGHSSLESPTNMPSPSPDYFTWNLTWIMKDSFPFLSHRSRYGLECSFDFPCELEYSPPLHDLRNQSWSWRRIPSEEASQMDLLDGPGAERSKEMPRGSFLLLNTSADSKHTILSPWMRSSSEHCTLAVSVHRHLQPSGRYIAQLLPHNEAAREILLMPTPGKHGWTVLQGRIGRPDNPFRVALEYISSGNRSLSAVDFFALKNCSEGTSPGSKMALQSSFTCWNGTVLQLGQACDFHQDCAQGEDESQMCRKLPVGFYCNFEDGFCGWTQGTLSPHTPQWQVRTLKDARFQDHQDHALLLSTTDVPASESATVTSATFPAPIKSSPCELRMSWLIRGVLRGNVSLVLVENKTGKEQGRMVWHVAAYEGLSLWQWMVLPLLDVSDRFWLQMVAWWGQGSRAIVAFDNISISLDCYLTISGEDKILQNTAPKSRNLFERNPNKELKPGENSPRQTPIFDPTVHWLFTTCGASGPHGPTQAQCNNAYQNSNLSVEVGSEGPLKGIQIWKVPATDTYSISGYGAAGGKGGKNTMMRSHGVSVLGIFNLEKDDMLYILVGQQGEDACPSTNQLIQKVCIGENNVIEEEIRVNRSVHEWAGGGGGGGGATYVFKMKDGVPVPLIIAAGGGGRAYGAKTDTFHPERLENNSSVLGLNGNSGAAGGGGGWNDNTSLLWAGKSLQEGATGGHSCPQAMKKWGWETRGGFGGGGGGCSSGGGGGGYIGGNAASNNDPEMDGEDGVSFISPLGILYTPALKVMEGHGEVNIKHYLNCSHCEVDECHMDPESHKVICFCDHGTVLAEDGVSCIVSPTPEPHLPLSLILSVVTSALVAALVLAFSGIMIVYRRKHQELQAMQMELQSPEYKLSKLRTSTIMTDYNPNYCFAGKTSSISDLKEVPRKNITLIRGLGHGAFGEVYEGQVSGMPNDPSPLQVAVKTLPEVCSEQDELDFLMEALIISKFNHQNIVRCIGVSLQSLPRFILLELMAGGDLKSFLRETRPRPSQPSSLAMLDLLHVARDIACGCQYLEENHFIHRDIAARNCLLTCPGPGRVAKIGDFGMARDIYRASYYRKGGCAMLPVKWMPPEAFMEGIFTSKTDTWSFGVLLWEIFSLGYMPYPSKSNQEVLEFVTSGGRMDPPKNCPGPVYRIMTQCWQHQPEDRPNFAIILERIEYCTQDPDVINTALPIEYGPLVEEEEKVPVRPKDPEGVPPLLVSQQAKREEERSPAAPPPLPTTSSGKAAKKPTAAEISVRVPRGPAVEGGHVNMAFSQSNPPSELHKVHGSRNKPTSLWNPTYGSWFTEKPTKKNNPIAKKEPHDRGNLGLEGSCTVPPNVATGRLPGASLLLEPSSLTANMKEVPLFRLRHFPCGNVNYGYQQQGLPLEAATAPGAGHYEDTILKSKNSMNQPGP

Row | Structure (SMILES) | IC50 [1] [µM] | IC50 [2] [µM] | IC50 [3] [µM]
1 | COc1cc(Nc2nccc(N3CCC[C@H](C(=O)NCc4ccc(C)cc4)C3)n2)cc(OC)c1OC | 4.61 |  | 
2 | CNc1nccc(N2CCC[C@H](C(=O)NCc3ccc(C)cc3)C2)n1 | > 25 | > 25 | 
3 | Cc1ccc(CNC(=O)[C@H]2CCCN(c3ccnc(Nc4ccccc4)n3)C2)cc1 | > 25 |  | 
4 | Cc1ccc(CNC(=O)[C@H]2CCCN(c3ccnc(NCc4ccccc4)n3)C2)cc1 | > 25 | > 25 | 
5 | Cc1ccc(CNC(=O)[C@H]2CCCN(c3ccnc(Nc4cccc(Cl)c4)n3)C2)cc1 | > 25 |  | 
6 | Cc1ccc(CNC(=O)[C@H]2CCCN(c3ccnc(Nc4ccc(Cl)cc4)n3)C2)cc1 | > 25 | 6.3 | 
7 | COc1ccc(Nc2nccc(N3CCC[C@H](C(=O)NCc4ccc(C)cc4)C3)n2)cc1 | > 25 |  | 
8 | CCc1cccc(Nc2nccc(N3CCC[C@H](C(=O)NCc4ccc(C)cc4)C3)n2)c1 | > 25 |  | 
9 | CCc1ccc(Nc2nccc(N3CCC[C@H](C(=O)NCc4ccc(C)cc4)C3)n2)cc1 | > 25 |  | 
10 | COc1ccc(Nc2nccc(N3CCC[C@H](C(=O)NCc4ccc(C)cc4)C3)n2)cc1OC | > 25 |  | 
11 | Cc1ccc(CNC(=O)[C@H]2CCCN(c3ccnc(Nc4ccc5c(c4)OCCO5)n3)C2)cc1 | > 25 |  | 
12 | COc1cc(Nc2nccc(N3CCC[C@H](C(=O)NCCc4ccccc4)C3)n2)cc(OC)c1OC | > 25 |  | 
13 | COc1cc(Nc2nccc(N3CCC[C@H](C(=O)NCCCc4ccccc4)C3)n2)cc(OC)c1OC |  | 6.71 | 
14 | COc1cc(Nc2nccc(N3CCC[C@H](C(=O)NCc4ccc([N+](=O)[O-])cc4)C3)n2)cc(OC)c1OC | > 25 | 2.93 | 
15 | COC(=O)c1ccc(CNC(=O)[C@H]2CCCN(c3ccnc(Nc4cc(OC)c(OC)c(OC)c4)n3)C2)cc1 | > 25 |  | 
16 | COc1cc(Nc2nccc(N3CCC[C@H](C(=O)NCc4ccc(-c5ccccc5)cc4)C3)n2)cc(OC)c1OC | > 25 |  | 
17 | COc1cc(Nc2nccc(N3CCC[C@H](C(=O)NCc4cccc(N5CCOCC5)c4)C3)n2)cc(OC)c1OC |  | 0.031 | 0.028
18 | COc1cc(Nc2nccc(N3CCC[C@@H](C(=O)NCc4ccc(C)cc4)C3)n2)cc(OC)c1OC | > 25 |  | 
